These results are taken from ChEMBL document CHEMBL1149183, “Novel benzo[1,4]diazepin-2-one derivatives as endothelin receptor antagonists” (J Med Chem, 2004).

In assay [1] the target is T1, Endothelin receptor type B (Homo sapiens, UniProt P24530).
T1 sequence (P24530 whole entry): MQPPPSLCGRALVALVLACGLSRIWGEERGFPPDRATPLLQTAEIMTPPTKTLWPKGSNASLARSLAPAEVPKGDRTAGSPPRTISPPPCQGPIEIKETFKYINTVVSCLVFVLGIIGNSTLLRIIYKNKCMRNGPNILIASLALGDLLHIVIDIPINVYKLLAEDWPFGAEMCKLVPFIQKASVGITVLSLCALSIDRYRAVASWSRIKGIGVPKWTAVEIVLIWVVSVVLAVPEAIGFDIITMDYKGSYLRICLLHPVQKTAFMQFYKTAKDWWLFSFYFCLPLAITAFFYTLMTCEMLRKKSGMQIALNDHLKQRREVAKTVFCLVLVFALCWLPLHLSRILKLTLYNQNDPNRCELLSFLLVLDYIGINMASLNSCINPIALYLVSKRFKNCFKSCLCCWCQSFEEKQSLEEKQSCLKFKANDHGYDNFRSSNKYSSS
In words: Antagonist activity towards human recombinant Endothelin B receptor expressed in chinese hamster ovary (CHO) cells determined using [125I]ET1 as radioligand. Type of assay: functional, cell-based.

A further assay concerns the target T2, Endothelin-1 receptor (Homo sapiens, UniProt P25101).
T2 sequence (P25101 whole entry): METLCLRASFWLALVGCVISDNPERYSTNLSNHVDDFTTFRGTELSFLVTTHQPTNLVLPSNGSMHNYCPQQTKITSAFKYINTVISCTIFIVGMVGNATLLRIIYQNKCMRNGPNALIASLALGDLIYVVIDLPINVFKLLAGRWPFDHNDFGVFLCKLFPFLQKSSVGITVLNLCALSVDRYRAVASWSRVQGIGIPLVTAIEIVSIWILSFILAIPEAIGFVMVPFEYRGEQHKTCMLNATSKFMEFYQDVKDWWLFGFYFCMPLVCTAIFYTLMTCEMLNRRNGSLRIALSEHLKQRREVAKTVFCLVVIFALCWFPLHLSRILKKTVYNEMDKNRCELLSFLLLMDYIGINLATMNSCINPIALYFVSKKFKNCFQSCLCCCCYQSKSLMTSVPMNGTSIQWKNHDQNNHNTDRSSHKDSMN
Put plainly: Antagonist activity towards human recombinant Endothelin A receptor expressed in chinese hamster ovary (CHO) cells determined using [125I]ET1 as radioligand. In kind it is functional, cell-based.

The next assay deals with T3, Endothelin receptor (Rattus norvegicus, UniProt P26684+P21451).
T3 sequence (P26684 whole entry): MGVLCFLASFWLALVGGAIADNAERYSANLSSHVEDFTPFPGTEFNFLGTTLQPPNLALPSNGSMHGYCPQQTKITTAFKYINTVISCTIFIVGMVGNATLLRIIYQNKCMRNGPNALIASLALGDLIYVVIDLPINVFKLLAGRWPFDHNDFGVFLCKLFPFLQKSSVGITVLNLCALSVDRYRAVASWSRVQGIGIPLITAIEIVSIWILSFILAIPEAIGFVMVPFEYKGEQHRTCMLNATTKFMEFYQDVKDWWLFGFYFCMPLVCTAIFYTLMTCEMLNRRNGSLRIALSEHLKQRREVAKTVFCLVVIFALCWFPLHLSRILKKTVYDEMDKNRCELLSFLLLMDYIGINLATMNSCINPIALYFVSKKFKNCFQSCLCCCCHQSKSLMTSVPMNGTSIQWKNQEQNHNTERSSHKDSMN
T3 sequence (P21451 whole entry): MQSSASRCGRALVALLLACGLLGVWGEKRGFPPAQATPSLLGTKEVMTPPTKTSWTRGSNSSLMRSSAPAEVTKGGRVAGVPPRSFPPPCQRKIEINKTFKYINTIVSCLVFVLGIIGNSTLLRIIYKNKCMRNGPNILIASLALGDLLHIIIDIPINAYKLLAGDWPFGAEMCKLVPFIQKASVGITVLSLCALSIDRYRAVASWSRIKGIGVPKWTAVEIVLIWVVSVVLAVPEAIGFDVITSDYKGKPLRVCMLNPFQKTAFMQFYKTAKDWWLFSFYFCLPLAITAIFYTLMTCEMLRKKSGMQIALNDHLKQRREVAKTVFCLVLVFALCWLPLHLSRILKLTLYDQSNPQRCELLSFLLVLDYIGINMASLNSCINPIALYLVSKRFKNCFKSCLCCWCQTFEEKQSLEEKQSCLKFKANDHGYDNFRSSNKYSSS
In words: Inhibitory potency at native endothelin A and endothelin B receptors by inhibiting endothelin-1 contractions of rat aortic rings. Type of assay: functional.

SMILES strings stand for the structures. Some results are limits rather than exact numbers.

One may read the IC50 as the concentration needed to halve the response being measured. Broadly, the pA2 is the negative logarithm of the molar antagonist concentration that doubles the agonist concentration needed for the same response. A higher pA2 goes with a more potent antagonist.

Take `Cc1cc(C)nc(O[C@H](C(=O)O)[C@@]2(c3ccccc3)NCC(=O)N(Cc3nn[nH]n3)c3ccccc32)n1` (racemic): the figures for the IC50 (in assay [1]; at Endothelin-1 receptor) were 65.6 nM and 6.6 nM, respectively. The compound also gave a pA2 on Endothelin receptor of 6.99.

Take `Cc1cc(C)nc(O[C@H](C(=O)O)[C@@]2(c3ccccc3)NCC(=O)N(Cc3ccc(OC(F)(F)F)cc3)c3ccccc32)n1` (racemic): the half-inhibitory concentration (IC50) turned out to be 32.2 nM in assay [1] and 2.5 nM at Endothelin-1 receptor. The pA2 at Endothelin receptor is listed as 7.59.

With `Cc1cc(C)nc(O[C@H](C(=O)O)[C@@]2(c3ccccc3)NCC(=O)N(Cc3c(F)ccc(F)c3F)c3ccccc32)n1` (racemic), the figures for the IC50 (in assay [1]; at Endothelin-1 receptor) were 13.2 nM and 2.4 nM, respectively. Besides, at Endothelin receptor, the pA2 is 8.38.

Consider `COc1ccc(CN2C(=O)CN[C@](c3cccc(C)c3)([C@H](Oc3nc(C)cc(C)n3)C(=O)O)c3ccccc32)cc1` (racemic), for which the 50% inhibitory concentration (IC50) in assay [1] was found to be 50.7 nM; on Endothelin-1 receptor it was 6.3 nM. On Endothelin receptor, this compound registered a pA2 of 6.32.

Take `CCCCc1ccc(CN2C(=O)CN[C@](c3ccccc3)([C@H](Oc3nc(C)cc(C)n3)C(=O)O)c3ccccc32)cc1` (racemic): the half-maximal inhibitory concentration (IC50) in assay [1] is 11.1 nM; on Endothelin-1 receptor it was 3.5 nM. Further, the pA2 on Endothelin receptor is on record as 7.84.

For `COc1ccc(CN2C(=O)CN[C@](c3cccc(-c4ccccc4)c3)([C@H](Oc3nc(C)cc(C)n3)C(=O)O)c3ccccc32)cc1` (racemic), the results for the half-inhibitory concentration (IC50) (in assay [1]; at Endothelin-1 receptor) were 86.8 nM and 3 nM, respectively. Besides, on Endothelin receptor, the pA2 is 7.28.

With `Cc1cc(C)nc(O[C@H](C(=O)O)[C@@]2(c3ccccc3)NCC(=O)N(Cc3c(F)cccc3Cl)c3ccccc32)n1` (racemic), the IC50 in assay [1] stood at 10.9 nM. At Endothelin receptor, this compound gave a pA2 of 7.8.

As for `COc1ccc(CN2C(=O)CN[C@](c3ccccc3)([C@H](Oc3nc(C)cc(C)n3)C(=O)O)c3ccccc32)cc1` (racemic), the concentration for half-maximal inhibition (IC50) in assay [1] amounted to 22.4 nM. This compound also gave a pA2 at Endothelin receptor of 7.08.

For the compound `Cc1ccc(CN2C(=O)CN[C@](c3ccccc3)([C@H](Oc3nc(C)cc(C)n3)C(=O)O)c3ccccc32)cc1` (racemic), the values for the 50% inhibitory concentration (IC50) (in assay [1]; on Endothelin-1 receptor) were 68.8 nM and 30.5 nM, respectively.

For the compound `Cc1cc(C)nc(O[C@H](C(=O)O)[C@@]2(c3ccccc3)NCC(=O)N(Cc3cc(F)c(F)cc3F)c3ccccc32)n1` (racemic), the 50% inhibitory concentration (IC50) in assay [1] is 72.7 nM; on Endothelin-1 receptor it was 7.2 nM.

Regarding `CSc1cnc(O[C@H](C(=O)O)[C@@]2(c3ccccc3)NCC(=O)N(C)c3ccccc32)nc1` (racemic), the IC50 was above 10000 nM in assay [1] and 6600 nM at Endothelin-1 receptor.

On to `COc1cc(OC)cc(O[C@H](C(=O)O)[C@@]2(c3ccccc3)NCC(=O)N(C)c3cc(Cl)ccc32)c1` (racemic), for which the IC50 was 5600 nM in assay [1] and 3840 nM on Endothelin-1 receptor.

Regarding `Cc1cc(C)nc(O[C@H](C(=O)O)[C@@]2(c3ccccc3)NCC(=O)N(CC3CC3)c3ccccc32)n1` (racemic), the IC50 in assay [1] was 87.8 nM; at Endothelin-1 receptor it was 7.3 nM.

As for `CN1C(=O)CN[C@](c2ccccc2)([C@H](Oc2ncc(Br)cn2)C(=O)O)c2ccccc21` (racemic), the values for the IC50 (in assay [1]; at Endothelin-1 receptor) were 9480 nM and 927 nM, respectively.

Regarding `Cc1cccc(O[C@H](C(=O)O)[C@@]2(c3ccccc3)NCC(=O)N(Cc3c(Cl)cccc3Cl)c3ccccc32)c1` (racemic), the IC50 in assay [1] was determined as 745 nM; on Endothelin-1 receptor, 29 nM.

With `COc1ccc(CN2C(=O)CN[C@](C3CCCCC3)([C@H](Oc3nc(C)cc(C)n3)C(=O)O)c3ccccc32)cc1` (racemic), the IC50 worked out at 105 nM in assay [1] and 112 nM on Endothelin-1 receptor.

In the case of `COc1cc(OC)cc(O[C@H](C(=O)O)[C@@]2(c3ccccc3)NCC(=O)N(Cc3c(Cl)cccc3Cl)c3ccccc32)c1` (racemic), the 50% inhibitory concentration (IC50) in assay [1] is 392 nM; at Endothelin-1 receptor it was 46.2 nM.

For the compound `Cc1cc(C)nc(O[C@H](C(=O)O)[C@@]2(c3ccccc3)NCC(=O)N(Cc3ccc(C(F)(F)F)cc3)c3ccccc32)n1` (racemic), the 50% inhibitory concentration (IC50) worked out at 47.1 nM in assay [1] and 17 nM at Endothelin-1 receptor.

Take `Cc1cc(C)nc(O[C@H](C(=O)O)[C@@]2(c3ccccc3)NCC(=O)N(Cc3ccc(F)c(F)c3)c3ccccc32)n1` (racemic): the IC50 worked out at 32.8 nM in assay [1] and 6.5 nM at Endothelin-1 receptor.

Consider `Cc1ccc(O[C@H](C(=O)O)[C@@]2(c3ccccc3)NCC(=O)N(Cc3c(Cl)cccc3Cl)c3ccccc32)cc1` (racemic), for which the half-maximal inhibitory concentration (IC50) in assay [1] amounted to 966 nM; at Endothelin-1 receptor, 156 nM.

Take `Cc1cc(C)nc(O[C@H](C(=O)O)[C@@]2(c3ccccc3)NCC(=O)N(CCN(C)C)c3ccccc32)n1` (racemic): the IC50 in assay [1] turned out to be 1780 nM; on Endothelin-1 receptor, 387 nM.

Take `Cc1cc(C)nc(O[C@H](C(=O)O)[C@@]2(c3ccccc3)NCC(=O)N(Cc3ccc(Cl)cc3)c3ccccc32)n1` (racemic): the IC50 in assay [1] came to 122 nM; at Endothelin-1 receptor it was 17.3 nM.

For the compound `COc1cc(OC)cc(O[C@H](C(=O)O)[C@@]2(c3ccccc3)NCC(=O)N(C)c3ccc(Cl)cc32)c1` (racemic), the IC50 in assay [1] stood at 1810 nM; on Endothelin-1 receptor, 262 nM.

In the case of `COc1cc(OC)nc(O[C@H](C(=O)O)[C@@]2(c3ccccc3)NCC(=O)N(C)c3ccccc32)n1` (racemic), the IC50 was determined as 473 nM in assay [1] and 23.4 nM at Endothelin-1 receptor.

On to `COc1ccccc1O[C@H](C(=O)O)[C@@]1(c2ccccc2)NCC(=O)N(Cc2c(Cl)cccc2Cl)c2ccccc21` (racemic), for which the concentration for half-maximal inhibition (IC50) is above 10000 nM in assay [1] and 5920 nM at Endothelin-1 receptor.

Regarding `Cc1cc(C)nc(O[C@H](C(=O)O)[C@@]2(c3ccccc3)NCC(=O)N(Cc3cc(F)c(F)c(F)c3)c3ccccc32)n1` (racemic), the concentration for half-maximal inhibition (IC50) in assay [1] came out at 25.3 nM; on Endothelin-1 receptor it was 11.8 nM.

As for `O=C(O)[C@@H](Oc1ccccc1Cl)[C@@]1(c2ccccc2)NCC(=O)N(Cc2c(Cl)cccc2Cl)c2ccccc21` (racemic), the 50% inhibitory concentration (IC50) (in assay [1]; at Endothelin-1 receptor) was above 10000 nM in each case.

With `Cc1cc(C)nc(O[C@H](C(=O)O)[C@@]2(c3ccccc3)NCC(=O)N(Cc3ccccc3Cl)c3ccccc32)n1` (racemic), the half-maximal inhibitory concentration (IC50) in assay [1] was 48.1 nM; at Endothelin-1 receptor, 10.2 nM.

Consider `COc1ccc(CN2C(=O)CN[C@](c3ccc(C)cc3)([C@H](Oc3nc(C)cc(C)n3)C(=O)O)c3ccccc32)cc1`, for which the IC50 was 181 nM in assay [1] and 221 nM on Endothelin-1 receptor.

Regarding `Cc1cc(C)nc(O[C@H](C(=O)O)[C@@]2(c3ccccc3)NCC(=O)N(Cc3cccc(C(F)(F)F)c3)c3ccccc32)n1` (racemic), the concentration for half-maximal inhibition (IC50) turned out to be 15.6 nM in assay [1] and 9.1 nM at Endothelin-1 receptor.

`Cc1ccc(C)c(O[C@H](C(=O)O)[C@@]2(c3ccccc3)NCC(=O)N(Cc3c(Cl)cccc3Cl)c3ccccc32)c1` (racemic): the IC50 in assay [1] was above 1000 nM; at Endothelin-1 receptor, above 10000 nM.

With `Cc1cc(C)nc(O[C@H](C(=O)O)[C@@]2(c3ccccc3)NCC(=O)N(Cc3ccc(C(C)(C)C)cc3)c3ccccc32)n1` (racemic), the half-inhibitory concentration (IC50) in assay [1] came to 24.1 nM; at Endothelin-1 receptor, 17.1 nM.

In the case of `CCCCC[C@]1([C@H](Oc2nc(C)cc(C)n2)C(=O)O)NCC(=O)N(Cc2ccc(OC)cc2)c2ccccc21` (racemic), the 50% inhibitory concentration (IC50) was found to be 73.6 nM in assay [1] and 355 nM at Endothelin-1 receptor.

As to `COc1cccc(O[C@H](C(=O)O)[C@@]2(c3ccccc3)NCC(=O)N(Cc3c(Cl)cccc3Cl)c3ccccc32)c1` (racemic), the results for the half-maximal inhibitory concentration (IC50) (in assay [1]; at Endothelin-1 receptor) were 1470 nM and 129 nM, respectively.

For `Cc1cc(C)nc(O[C@H](C(=O)O)[C@@]2(c3ccccc3)NCC(=O)N(CC(=O)O)c3ccccc32)n1` (racemic), the IC50 came out at 558 nM in assay [1] and 13 nM at Endothelin-1 receptor.
